In PubChem BioAssay (NCI):
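Following 48 hours of exposure in 96-well plates, responses at five concentrations were used to interpolate endpoints linearly. GI50 = concentration required for 50% inhibition of growth. The concentration for full growth arrest is given as TGI.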

Tests used:
Assay in all cases: growth of human tumour cells (NCI), 48 h
HS 578T breast = tested on: HS 578T breast
HT29 colon = tested on: HT29 colon
MDA-MB-435 = tested on: MDA-MB-435
KM12 colon = tested on: KM12 colon
UACC-62 melanoma = tested on: UACC-62 melanoma
DU-145 prostate = tested on: DU-145 prostate
CCRF-CEM leukemia = tested on: CCRF-CEM leukemia
SK-OV-3 ovarian = tested on: SK-OV-3 ovarian
HCT-15 colon = tested on: HCT-15 colon
MDA-MB-231 breast = tested on: MDA-MB-231 breast
NCI/ADR-RES ovarian = tested on: NCI/ADR-RES ovarian
LOX IMVI melanoma = tested on: LOX IMVI melanoma
SF-268 CNS = tested on: SF-268 CNS
RXF 393 renal = tested on: RXF 393 renal
HCC-2998 colon = tested on: HCC-2998 colon
MOLT-4 leukemia = tested on: MOLT-4 leukemia
SK-MEL-2 melanoma = tested on: SK-MEL-2 melanoma
OVCAR-4 ovarian = tested on: OVCAR-4 ovarian
OVCAR-3 ovarian = tested on: OVCAR-3 ovarian
SW-620 colon = tested on: SW-620 colon
HL-60(TB) leukemia = tested on: HL-60(TB) leukemia
UO-31 renal = tested on: UO-31 renal
SN12C renal = tested on: SN12C renal
786-0 renal = tested on: 786-0 renal
A498 renal = tested on: A498 renal
UACC-257 melanoma = tested on: UACC-257 melanoma
HOP-92 NSCLC = tested on: HOP-92 NSCLC
M14 melanoma = tested on: M14 melanoma
A549 NSCLC = tested on: A549 NSCLC
COLO 205 colon = tested on: COLO 205 colon
TK-10 renal = tested on: TK-10 renal
CAKI-1 renal = tested on: CAKI-1 renal
SF-295 CNS = tested on: SF-295 CNS
T-47D breast = tested on: T-47D breast
NCI-H522 lung = tested on: NCI-H522 lung
RPMI-8226 leukemia = tested on: RPMI-8226 leukemia
NCI-H23 lung = tested on: NCI-H23 lung
SK-MEL-5 melanoma = tested on: SK-MEL-5 melanoma
SNB-75 CNS = tested on: SNB-75 CNS
SF-539 CNS = tested on: SF-539 CNS
ACHN renal = tested on: ACHN renal
K-562 leukemia = tested on: K-562 leukemia
NCI-H226 lung = tested on: NCI-H226 lung
MCF7 breast = tested on: MCF7 breast
HOP-62 NSCLC = tested on: HOP-62 NSCLC
NCI-H460 lung = tested on: NCI-H460 lung
EKVX NSCLC = tested on: EKVX NSCLC
SK-MEL-28 melanoma = tested on: SK-MEL-28 melanoma
BT-549 breast = tested on: BT-549 breast
HCT-116 colon = tested on: HCT-116 colon
PC-3 prostate = tested on: PC-3 prostate
OVCAR-5 ovarian = tested on: OVCAR-5 ovarian
OVCAR-8 ovarian = tested on: OVCAR-8 ovarian
U251 CNS = tested on: U251 CNS
SNB-19 CNS = tested on: SNB-19 CNS
IGROV1 ovarian = tested on: IGROV1 ovarian

Which GI50 (HS 578T breast) does the source give for `C#Cc1c(C(N)=O)ncn1C1OC(COP(=O)(OCc2ccc([N+](=O)[O-])o2)N(C)CCCCCl)C(O)C1O` (configuration not stated) here?
The GI50 was greater than 100 µM.

And the TGI (HS 578T breast)?
The TGI was greater than 100 µM.

What about the GI50 (HT29 colon) of the same compound?
Its GI50 is 13.3 µM.

And the TGI (HT29 colon)?
Its TGI is greater than 100 µM.

What about the GI50 (MDA-MB-435) of the same compound?
The GI50 was 46.2 µM.

And the TGI (MDA-MB-435)?
The TGI was greater than 100 µM.

And the GI50 (KM12 colon)?
The GI50 was 42.7 µM.

What about the TGI (KM12 colon) of the same compound?
Its TGI is greater than 100 µM.

What about the GI50 (UACC-62 melanoma) of the same compound?
The GI50 was greater than 100 µM.

And the TGI (UACC-62 melanoma)?
Its TGI is greater than 100 µM.

What about the GI50 (DU-145 prostate) of the same compound?
The GI50 was 7.83 µM.

What about the TGI (DU-145 prostate) of the same compound?
Its TGI is greater than 100 µM.

And the GI50 (CCRF-CEM leukemia)?
The GI50 was 21.9 µM.

What about the TGI (CCRF-CEM leukemia) of the same compound?
Its TGI is greater than 100 µM.

And the GI50 (SK-OV-3 ovarian)?
The GI50 was 77 µM.

What about the TGI (SK-OV-3 ovarian) of the same compound?
Its TGI is greater than 100 µM.

And the GI50 (HCT-15 colon)?
Its GI50 is 31.3 µM.

What about the TGI (HCT-15 colon) of the same compound?
The TGI was greater than 100 µM.

What about the GI50 (MDA-MB-231 breast) of the same compound?
The GI50 was greater than 100 µM.

And the TGI (MDA-MB-231 breast)?
Its TGI is greater than 100 µM.

What about the GI50 (NCI/ADR-RES ovarian) of the same compound?
Its GI50 is 15.1 µM.

What about the TGI (NCI/ADR-RES ovarian) of the same compound?
Its TGI is greater than 100 µM.

What about the GI50 (LOX IMVI melanoma) of the same compound?
The GI50 was 22.4 µM.

And the TGI (LOX IMVI melanoma)?
Its TGI is greater than 100 µM.

And the GI50 (SF-268 CNS)?
The GI50 was 45.1 µM.

What about the TGI (SF-268 CNS) of the same compound?
Its TGI is greater than 100 µM.

And the GI50 (RXF 393 renal)?
The GI50 was greater than 100 µM.

And the TGI (RXF 393 renal)?
The TGI was greater than 100 µM.

And the GI50 (HCC-2998 colon)?
Its GI50 is 16.2 µM.

And the TGI (HCC-2998 colon)?
The TGI was greater than 100 µM.

What about the GI50 (MOLT-4 leukemia) of the same compound?
Its GI50 is 83.7 µM.

And the TGI (MOLT-4 leukemia)?
Its TGI is greater than 100 µM.

What about the GI50 (SK-MEL-2 melanoma) of the same compound?
The GI50 was 89.9 µM.

And the TGI (SK-MEL-2 melanoma)?
Its TGI is greater than 100 µM.

And the GI50 (OVCAR-4 ovarian)?
The GI50 was greater than 100 µM.

What about the TGI (OVCAR-4 ovarian) of the same compound?
The TGI was greater than 100 µM.

And the GI50 (OVCAR-3 ovarian)?
Its GI50 is 15.1 µM.

And the TGI (OVCAR-3 ovarian)?
The TGI was 63.5 µM.

What about the GI50 (SW-620 colon) of the same compound?
Its GI50 is 41.4 µM.

And the TGI (SW-620 colon)?
Its TGI is greater than 100 µM.

And the GI50 (HL-60(TB) leukemia)?
Its GI50 is greater than 100 µM.

What about the TGI (HL-60(TB) leukemia) of the same compound?
The TGI was greater than 100 µM.

And the GI50 (UO-31 renal)?
Its GI50 is 34.8 µM.

What about the TGI (UO-31 renal) of the same compound?
Its TGI is greater than 100 µM.

And the GI50 (SN12C renal)?
The GI50 was 48.3 µM.

And the TGI (SN12C renal)?
Its TGI is greater than 100 µM.

And the GI50 (786-0 renal)?
The GI50 was 36.3 µM.

And the TGI (786-0 renal)?
Its TGI is greater than 100 µM.

And the GI50 (A498 renal)?
Its GI50 is 39.6 µM.

And the TGI (A498 renal)?
Its TGI is greater than 100 µM.

What about the GI50 (UACC-257 melanoma) of the same compound?
The GI50 was 35.2 µM.

And the TGI (UACC-257 melanoma)?
Its TGI is greater than 100 µM.

And the GI50 (HOP-92 NSCLC)?
Its GI50 is 51.2 µM.

And the TGI (HOP-92 NSCLC)?
Its TGI is greater than 100 µM.

What about the GI50 (M14 melanoma) of the same compound?
Its GI50 is 67.9 µM.

What about the TGI (M14 melanoma) of the same compound?
The TGI was greater than 100 µM.

And the GI50 (A549 NSCLC)?
Its GI50 is 28.5 µM.

And the TGI (A549 NSCLC)?
The TGI was greater than 100 µM.

And the GI50 (COLO 205 colon)?
The GI50 was 5.5 µM.

What about the TGI (COLO 205 colon) of the same compound?
The TGI was 88.2 µM.

And the GI50 (TK-10 renal)?
The GI50 was 43.1 µM.

What about the TGI (TK-10 renal) of the same compound?
Its TGI is greater than 100 µM.

And the GI50 (CAKI-1 renal)?
Its GI50 is 47.9 µM.

What about the TGI (CAKI-1 renal) of the same compound?
The TGI was greater than 100 µM.

And the GI50 (SF-295 CNS)?
Its GI50 is 31.2 µM.

What about the TGI (SF-295 CNS) of the same compound?
Its TGI is greater than 100 µM.

What about the GI50 (T-47D breast) of the same compound?
Its GI50 is 12.7 µM.

What about the TGI (T-47D breast) of the same compound?
The TGI was greater than 100 µM.

What about the GI50 (NCI-H522 lung) of the same compound?
Its GI50 is 3.78 µM.

And the TGI (NCI-H522 lung)?
The TGI was 88.1 µM.

What about the GI50 (RPMI-8226 leukemia) of the same compound?
Its GI50 is 0.0113 µM.

What about the TGI (RPMI-8226 leukemia) of the same compound?
Its TGI is greater than 100 µM.

And the GI50 (NCI-H23 lung)?
Its GI50 is 5.99 µM.

And the TGI (NCI-H23 lung)?
Its TGI is 73.6 µM.

What about the GI50 (SK-MEL-5 melanoma) of the same compound?
Its GI50 is 2.83 µM.

And the TGI (SK-MEL-5 melanoma)?
Its TGI is 26.5 µM.

And the GI50 (SNB-75 CNS)?
Its GI50 is 28.1 µM.

And the TGI (SNB-75 CNS)?
Its TGI is greater than 100 µM.

And the GI50 (SF-539 CNS)?
The GI50 was 19.7 µM.

What about the TGI (SF-539 CNS) of the same compound?
The TGI was greater than 100 µM.

And the GI50 (ACHN renal)?
Its GI50 is 45 µM.

And the TGI (ACHN renal)?
Its TGI is greater than 100 µM.

What about the GI50 (K-562 leukemia) of the same compound?
The GI50 was 74.2 µM.

What about the TGI (K-562 leukemia) of the same compound?
Its TGI is greater than 100 µM.

And the GI50 (NCI-H226 lung)?
The GI50 was greater than 100 µM.

And the TGI (NCI-H226 lung)?
Its TGI is greater than 100 µM.

And the GI50 (MCF7 breast)?
Its GI50 is 20.1 µM.

What about the TGI (MCF7 breast) of the same compound?
Its TGI is greater than 100 µM.

What about the GI50 (HOP-62 NSCLC) of the same compound?
Its GI50 is 49.3 µM.

What about the TGI (HOP-62 NSCLC) of the same compound?
Its TGI is greater than 100 µM.

What about the GI50 (NCI-H460 lung) of the same compound?
Its GI50 is 34.1 µM.

What about the TGI (NCI-H460 lung) of the same compound?
Its TGI is greater than 100 µM.

And the GI50 (EKVX NSCLC)?
Its GI50 is 82.9 µM.

What about the TGI (EKVX NSCLC) of the same compound?
The TGI was greater than 100 µM.

What about the GI50 (SK-MEL-28 melanoma) of the same compound?
Its GI50 is 27.3 µM.

And the TGI (SK-MEL-28 melanoma)?
Its TGI is greater than 100 µM.

And the GI50 (BT-549 breast)?
Its GI50 is 37.8 µM.

And the TGI (BT-549 breast)?
Its TGI is greater than 100 µM.

And the GI50 (HCT-116 colon)?
Its GI50 is 38.2 µM.

And the TGI (HCT-116 colon)?
Its TGI is greater than 100 µM.

What about the GI50 (PC-3 prostate) of the same compound?
The GI50 was 53.5 µM.

And the TGI (PC-3 prostate)?
The TGI was greater than 100 µM.

And the GI50 (OVCAR-5 ovarian)?
Its GI50 is 16.2 µM.

And the TGI (OVCAR-5 ovarian)?
The TGI was greater than 100 µM.

And the GI50 (OVCAR-8 ovarian)?
The GI50 was 9.91 µM.

And the TGI (OVCAR-8 ovarian)?
The TGI was greater than 100 µM.

And the GI50 (U251 CNS)?
Its GI50 is 53.9 µM.

What about the TGI (U251 CNS) of the same compound?
Its TGI is greater than 100 µM.

And the GI50 (SNB-19 CNS)?
The GI50 was 51.7 µM.

And the TGI (SNB-19 CNS)?
The TGI was greater than 100 µM.

And the GI50 (IGROV1 ovarian)?
Its GI50 is 4.59 µM.

What about the TGI (IGROV1 ovarian) of the same compound?
The TGI was greater than 100 µM.
